Test results taken from patent US11459323B2, “Monocyclic β-lactam compound for treating bacterial infection” (MEDSHINE DISCOVERY INC., priority 2018, dated 2022).
Converted amounts (≈) assume the structure as drawn.

Tests used:
Experiment in all cases: MIC on clinically isolated bacteria
Format in all cases: cell-based
[1] = system: Pseudomonas aeruginosa W46; conditions: read-out: MIC
Excerpt: (§1) Twenty-five strains of clinically isolated Acinetobacter baumannii and twenty-seven strains of Pseudomonas aeruginosa were respectively selected and used to determine the minimum inhibitory concentration (MIC) of the compounds by micro-liquid dilution method according to the Institute of Clinical and Laboratory Standard (CLSI) requirements.

[2] = system: Acinetobacter baumannii C328; conditions: Acinetobacter baumannii C328; read-out: Minimum Inhibitory Concentration (MIC)
Excerpt: as §1

[3] = system: Acinetobacter baumannii C390; conditions: Acinetobacter baumannii C390; read-out: Minimum Inhibitory Concentration (MIC)
Excerpt: as §1

[4] = system: Pseudomonas aeruginosa C754; conditions: read-out: MIC
Excerpt: as §1

[5] = system: Pseudomonas aeruginosa C763; conditions: read-out: MIC
Excerpt: as §1

[6] = system: Pseudomonas aeruginosa W21; conditions: read-out: MIC
Excerpt: as §1

[7] = system: Acinetobacter baumannii C395; conditions: Acinetobacter baumannii C395; read-out: Minimum Inhibitory Concentration (MIC)
Excerpt: as §1

[8] = system: Pseudomonas aeruginosa C755; conditions: read-out: MIC
Excerpt: as §1

[9] = system: Acinetobacter baumannii C281; conditions: Acinetobacter baumannii C281; read-out: Minimum Inhibitory Concentration (MIC)
Excerpt: as §1

[10] = system: Acinetobacter baumannii C401; conditions: Acinetobacter baumannii C401; read-out: Minimum Inhibitory Concentration (MIC)
Excerpt: as §1

[11] = system: Pseudomonas aeruginosa W35; conditions: read-out: MIC
Excerpt: as §1

[12] = system: Acinetobacter baumannii C241; conditions: Acinetobacter baumannii C241; read-out: Minimum Inhibitory Concentration (MIC)
Excerpt: as §1

[13] = system: Acinetobacter baumannii C361; conditions: Acinetobacter baumannii C361; read-out: Minimum Inhibitory Concentration (MIC)
Excerpt: as §1

[14] = system: Acinetobacter baumannii C279; conditions: Acinetobacter baumannii C279; read-out: Minimum Inhibitory Concentration (MIC)
Excerpt: as §1

[15] = system: Pseudomonas aeruginosa W23; conditions: read-out: MIC
Excerpt: as §1

[16] = system: Pseudomonas aeruginosa C745; conditions: read-out: MIC
Excerpt: as §1

Aeruginosa ATCC27853 = conditions: Pseudomonas aeruginosa; Aeruginosa ATCC27853; read-out: MIC
Excerpt: as §1

[17] = system: Pseudomonas aeruginosa W19; conditions: read-out: MIC
Excerpt: as §1

[18] = system: Acinetobacter baumannii C332; conditions: Acinetobacter baumannii C332; read-out: Minimum Inhibitory Concentration (MIC)
Excerpt: as §1

[19] = system: Pseudomonas aeruginosa C762; conditions: read-out: MIC
Excerpt: as §1

[20] = system: Pseudomonas aeruginosa M1; conditions: read-out: MIC
Excerpt: as §1

[21] = system: Acinetobacter baumannii C357; conditions: Acinetobacter baumannii C357; read-out: Minimum Inhibitory Concentration (MIC)
Excerpt: as §1

[22] = system: Acinetobacter baumannii C319; conditions: Acinetobacter baumannii C319; read-out: Minimum Inhibitory Concentration (MIC)
Excerpt: as §1

[23] = system: Pseudomonas aeruginosa W9; conditions: read-out: MIC
Excerpt: as §1

[24] = system: Acinetobacter baumannii C402; conditions: Acinetobacter baumannii C402; read-out: Minimum Inhibitory Concentration (MIC)
Excerpt: as §1

[25] = system: Acinetobacter baumannii C427; conditions: Acinetobacter baumannii C427; read-out: Minimum Inhibitory Concentration (MIC)
Excerpt: as §1

[26] = system: Acinetobacter baumannii C251; conditions: Acinetobacter baumannii C251; read-out: Minimum Inhibitory Concentration (MIC)
Excerpt: as §1

[27] = system: Pseudomonas aeruginosa W20; conditions: read-out: MIC
Excerpt: as §1

[28] = system: Acinetobacter baumannii C333; conditions: Acinetobacter baumannii C333; read-out: Minimum Inhibitory Concentration (MIC)
Excerpt: as §1

[29] = system: Acinetobacter baumannii C181; conditions: Acinetobacter baumannii C181; read-out: Minimum Inhibitory Concentration (MIC)
Excerpt: as §1

[30] = system: Acinetobacter baumannii C313; conditions: Acinetobacter baumannii C313; read-out: Minimum Inhibitory Concentration (MIC)
Excerpt: as §1

[31] = system: Pseudomonas aeruginosa W32; conditions: read-out: MIC
Excerpt: as §1

[32] = system: Pseudomonas aeruginosa W4; conditions: read-out: MIC
Excerpt: as §1

[33] = system: Pseudomonas aeruginosa W13; conditions: read-out: MIC
Excerpt: as §1

[34] = system: Pseudomonas aeruginosa C761; conditions: read-out: MIC
Excerpt: as §1

[35] = system: Acinetobacter baumannii C283; conditions: Acinetobacter baumannii C283; read-out: Minimum Inhibitory Concentration (MIC)
Excerpt: as §1

[36] = system: Acinetobacter baumannii C394; conditions: Acinetobacter baumannii C394; read-out: Minimum Inhibitory Concentration (MIC)
Excerpt: as §1

[37] = system: Acinetobacter baumannii C408; conditions: Acinetobacter baumannii C408; read-out: Minimum Inhibitory Concentration (MIC)
Excerpt: as §1

[38] = system: Acinetobacter baumannii C270; conditions: Acinetobacter baumannii C270; read-out: Minimum Inhibitory Concentration (MIC)
Excerpt: as §1

[39] = system: Pseudomonas aeruginosa W1; conditions: read-out: MIC
Excerpt: as §1

| Structure (SMILES) | MIC [1] | MIC [3] | MIC [4] | MIC [5] | MIC [6] | MIC [8] | MIC [9] | MIC [10] | MIC [11] | MIC [12] | MIC [13] | MIC [14] | MIC [15] | MIC [16] | MIC (Aeruginosa ATCC27853) | MIC [17] | MIC [18] | MIC [19] | MIC [20] | MIC [21] | further results |
| --- | --- | --- | --- | --- | --- | --- | --- | --- | --- | --- | --- | --- | --- | --- | --- | --- | --- | --- | --- | --- | --- |
| CC1(C)[C@H](NC(=O)/C(=N\O[C@@H](COc2ccc3c(c2)CN(C(=N)N[C@@H]2CCCNC2)C3)C(=O)O)c2csc(N)n2)C(=O)N1OS(=O)(=O)O [Compound 41] | 2 µg/mL (≈ 2.82 µM) | 2 µg/mL (≈ 2.82 µM) | 0.5 µg/mL (≈ 0.704 µM) | 4 µg/mL (≈ 5.64 µM) | 0.5 µg/mL (≈ 0.704 µM) | 0.5 µg/mL (≈ 0.704 µM) | 2 µg/mL (≈ 2.82 µM) | 1 µg/mL (≈ 1.41 µM) | 0.5 µg/mL (≈ 0.704 µM) | 4 µg/mL (≈ 5.64 µM) | 1 µg/mL (≈ 1.41 µM) | 2 µg/mL (≈ 2.82 µM) | 0.5 µg/mL (≈ 0.704 µM) | 4 µg/mL (≈ 5.64 µM) | 0.5 µg/mL (≈ 0.704 µM) | 1 µg/mL (≈ 1.41 µM) | 2 µg/mL (≈ 2.82 µM) | 8 µg/mL (≈ 11.3 µM) | 1 µg/mL (≈ 1.41 µM) | 2 µg/mL (≈ 2.82 µM) | MIC [2]: 2 µg/mL (≈ 2.82 µM); MIC [7]: 2 µg/mL (≈ 2.82 µM); MIC [22]: 2 µg/mL (≈ 2.82 µM); MIC [23]: 4 µg/mL (≈ 5.64 µM); MIC [24]: 2 µg/mL (≈ 2.82 µM); MIC [25]: 4 µg/mL (≈ 5.64 µM); MIC [26]: 8 µg/mL (≈ 11.3 µM); MIC [27]: 4 µg/mL (≈ 5.64 µM); MIC [28]: 2 µg/mL (≈ 2.82 µM); MIC [29]: 4 µg/mL (≈ 5.64 µM); MIC [30]: 2 µg/mL (≈ 2.82 µM); MIC [31]: 4 µg/mL (≈ 5.64 µM); MIC [32]: 0.5 µg/mL (≈ 0.704 µM); MIC [33]: 0.5 µg/mL (≈ 0.704 µM); MIC [34]: 1 µg/mL (≈ 1.41 µM); MIC [35]: 2 µg/mL (≈ 2.82 µM); MIC [36]: 2 µg/mL (≈ 2.82 µM); MIC [37]: 2 µg/mL (≈ 2.82 µM); MIC [38]: 2 µg/mL (≈ 2.82 µM); MIC [39]: 2 µg/mL (≈ 2.82 µM) |
| CC1(C)[C@H](NC(=O)/C(=N\O[C@@H](COc2ccc3c(c2)CN(C(=N)NOCCN)C3)C(=O)O)c2csc(N)n2)C(=O)N1OS(=O)(=O)O [Compound 43] | 4 µg/mL (≈ 5.83 µM) | 8 µg/mL (≈ 11.7 µM) | 1 µg/mL (≈ 1.46 µM) | 8 µg/mL (≈ 11.7 µM) | 1 µg/mL (≈ 1.46 µM) | 1 µg/mL (≈ 1.46 µM) | 8 µg/mL (≈ 11.7 µM) | 8 µg/mL (≈ 11.7 µM) | 1 µg/mL (≈ 1.46 µM) | > 16 µg/mL | 8 µg/mL (≈ 11.7 µM) | 8 µg/mL (≈ 11.7 µM) | 1 µg/mL (≈ 1.46 µM) | 8 µg/mL (≈ 11.7 µM) | 1 µg/mL (≈ 1.46 µM) | 4 µg/mL (≈ 5.83 µM) | 8 µg/mL (≈ 11.7 µM) | 16 µg/mL (≈ 23.3 µM) | 1 µg/mL (≈ 1.46 µM) | 8 µg/mL (≈ 11.7 µM) | MIC [2]: 8 µg/mL (≈ 11.7 µM); MIC [7]: 8 µg/mL (≈ 11.7 µM); MIC [22]: 8 µg/mL (≈ 11.7 µM); MIC [23]: 8 µg/mL (≈ 11.7 µM); MIC [24]: 8 µg/mL (≈ 11.7 µM); MIC [25]: 16 µg/mL (≈ 23.3 µM); MIC [26]: 8 µg/mL (≈ 11.7 µM); MIC [27]: 8 µg/mL (≈ 11.7 µM); MIC [28]: 8 µg/mL (≈ 11.7 µM); MIC [29]: > 16 µg/mL; MIC [30]: 8 µg/mL (≈ 11.7 µM); MIC [31]: 8 µg/mL (≈ 11.7 µM); MIC [32]: 0.5 µg/mL (≈ 0.729 µM); MIC [33]: 1 µg/mL (≈ 1.46 µM); MIC [34]: 2 µg/mL (≈ 2.92 µM); MIC [35]: 8 µg/mL (≈ 11.7 µM); MIC [36]: 8 µg/mL (≈ 11.7 µM); MIC [37]: 8 µg/mL (≈ 11.7 µM); MIC [38]: 8 µg/mL (≈ 11.7 µM); MIC [39]: 8 µg/mL (≈ 11.7 µM) |
| C[C@@H](O)[C@H]1C(=O)N2C(C(=O)O)=C(S[C@@H]3CN[C@H](C(=O)N(C)C)C3)[C@H](C)[C@H]12 [Meropenem, reference compound] | 2 µg/mL (≈ 5.22 µM) | 64 µg/mL (≈ 167 µM) | < 0.25 µg/mL | 32 µg/mL (≈ 83.4 µM) | 16 µg/mL (≈ 41.7 µM) | < 0.25 µg/mL | 64 µg/mL (≈ 167 µM) | 128 µg/mL (≈ 334 µM) | 16 µg/mL (≈ 41.7 µM) | 64 µg/mL (≈ 167 µM) | 64 µg/mL (≈ 167 µM) | 64 µg/mL (≈ 167 µM) | 16 µg/mL (≈ 41.7 µM) | 32 µg/mL (≈ 83.4 µM) | < 0.25 µg/mL | 1 µg/mL (≈ 2.61 µM) | 64 µg/mL (≈ 167 µM) | 32 µg/mL (≈ 83.4 µM) | 4 µg/mL (≈ 10.4 µM) | 64 µg/mL (≈ 167 µM) | MIC [22]: 64 µg/mL (≈ 167 µM); MIC [23]: 16 µg/mL (≈ 41.7 µM); MIC [24]: 64 µg/mL (≈ 167 µM); MIC [25]: 64 µg/mL (≈ 167 µM); MIC [26]: 64 µg/mL (≈ 167 µM); MIC [27]: 8 µg/mL (≈ 20.9 µM); MIC [28]: 64 µg/mL (≈ 167 µM); MIC [29]: 128 µg/mL (≈ 334 µM); MIC [30]: 64 µg/mL (≈ 167 µM); MIC [31]: 4 µg/mL (≈ 10.4 µM); MIC [32]: 2 µg/mL (≈ 5.22 µM); MIC [33]: 16 µg/mL (≈ 41.7 µM); MIC [34]: < 0.25 µg/mL; MIC [35]: 64 µg/mL (≈ 167 µM); MIC [36]: 64 µg/mL (≈ 167 µM); MIC [37]: 128 µg/mL (≈ 334 µM); MIC [38]: 64 µg/mL (≈ 167 µM); MIC [39]: 4 µg/mL (≈ 10.4 µM) |
